Experimental findings from patent US20060276465A1, “1,2-di(cyclic) substituted benzene compounds” (Eisai R&D Management Co., Ltd., priority 2003, published 2006) are described below.

Counter-ions that a name gives are not always drawn.

Assay [1] has as its system Jurkat cells. The experiment in a line: Jurkat cell adhesion system (adhesion to immobilized human fibronectin, PMA-stimulated). The format is cell-based. The note with it: concentration inhibiting by 50% the PMA-stimulated increase in the number of adhered Jurkat cells on human fibronectin, 45-60 minutes, 37° C. As for the experimental part: Evaluation of Compounds in Jurkat Cell Adhesion System
<Immobilization of Human Fibronectin in 96-Well Plate>
Human fibronectin (Becton Dickinson Biosciences) was diluted with phosphate-buffered saline (hereinafter abbreviated as PBS; Sigma) to 0.1-0.01 μg/ml, and the diluted solution was added to a 96-well plate (Becton Dickinson) at 50 μl/well, and allowed to stand overnight at 4° C. On the following day, the supernatant was removed from the plate, and then PBS containing 1% bovine serum albumin (hereinafter abbreviated as BSA; Sigma) was added thereto at 100 μl/well and incubation was performed at 37° C. for 2 hours in a CO2 incubator (Hirasawa).
The supernatant was removed from each plate and Jurkat cells suspended in RPMI-1640 (Sigma) containing 1 mg/ml BSA were added at 80 μl/well for 2.5×10^5 cells/well. The compound diluted to different concentrations with RPMI-1640 containing 1 mg/ml BSA was immediately added at 10 μl/well, and then 100 nM phorbol myristate acetate (hereinafter abbreviated as PMA; Sigma) in RPMI-1640 containing 1 mg/ml BSA was added at 10 μl/well and the plate was incubated in a CO2 incubator at 37° C. for 45-60 minutes. The supernatant was removed from the plate and each well was washed several times with 100 μl/well of RPMI-1640, after which 50 mM citrate buffer (pH 5.0) containing 3.75 mM p-nitrophenol-N-acetyl-β-D-glucosaminide (Sigma) and 0.25% Triton X-100 (Sigma) were added at 60 μl/well, and the mixture was placed in a CO2 incubator and incubated at 37° C. for 45 minutes. After incubation, 50 mM glycine buffer (pH 10.4) containing 5 mM EDTA was added at 90 μl/well, and the absorbance at 405 nm was measured with an EL340 Automated Microplate Reader (BIO-TEK) to determine the adhered cell count. The concentration of each compound which inhibited the increase in the number of adhered cells by the PMA-stimulation by 50% was recorded as the IC50 (μM).

Assay [2] concerns human peripheral blood neutrophils. The assay is described as follows: Human peripheral blood neutrophil adhesion system (adhesion to immobilized HUVEC, PMA-stimulated). Type of assay: cell-based. The note with it: 0.75 h, concentration inhibiting by 50% the PMA-stimulated increase in the number of adhered BCECF-AM labeled neutrophils on HUVEC immobilized plate, 45 minutes, 37° C. As for the experimental part: Evaluation of Compounds in Human Peripheral Blood Neutrophil Adhesion System
<Preparation of Human Peripheral Blood Neutrophils>
To a plastic centrifugation tube containing 100 units of heparin sodium (Shimizu Pharmaceutical) was added 25 ml of fresh blood sampled from a healthy human. After adding and mixing therewith 8 ml of physiological saline (Otsuka Pharmaceutical) containing 6% Dextran (Nacalai), the mixture was allowed to stand at room temperature for 45 minutes for sedimentation of the erythrocytes. The resultant supernatant was transferred to another plastic centrifugation tube and combined with an equivalent volume of phosphate-buffered saline (hereinafter abbreviated as PBS; Sigma), and then centrifuged at 1600 rpm for 7 minutes at room temperature. The obtained hematocyte fraction was suspended in 4 ml of PBS, and the suspension was superposed on 4 ml of Ficoll-Paque™ PLUS (Amersham Biosciences). The resultant bilayer liquid was centrifuged at 2000 rpm for 30 minutes at room temperature, after which the supernatant was removed and the precipitate was suspended in 10 ml of PBS and centrifuged at 1200 rpm for 7 minutes, and the supernatant was removed. The resulting precipitate was suspended in 0.5 ml of PBS again, and then 10 ml of distilled water (Otsuka Pharmaceutical) was added, 0.5 ml of an aqueous solution containing 3 M NaCl was immediately added to restore isotonicity, the mixture was centrifuged at 1200 rpm for 7 minutes, and the obtained precipitate was suspended in PBS containing 1 mg/ml bovine serum albumin (hereinafter abbreviated as BSA; Sigma) again and stored in ice until being used for the experiment.
<Fluorescent Labeling of Human Peripheral Blood Neutrophils>
The obtained neutrophils were suspended in PBS containing 1 mg/ml BSA at 2×10^7 cells/ml. BCECF-AM (Dojin) was added to a final concentration of 5 μM, and the mixture was incubated at 37° C. for 45 minutes. It was then rinsed twice with PBS containing 1 mg/ml BSA by centrifugation, suspended again in PBS containing 1 mg/ml BSA at 5×10^7 cells/ml, and stored in ice until use.
<Preparation of HUVEC Immobilized Plate>
Human umbilical vein endothelial cells (hereinafter abbreviated as HUVEC) were suspended in MCDB131 medium (Chlorella Industries) containing 10% fetal calf serum and 30 μg/ml endothelial cell growth supplement (Becton Dickinson Bioscience). The suspension was added at 7.5×10^3 cells/well to a 96-well plate (Iwaki) immobilized with type I collagen, and cultured for 3 days in a CO2 incubator (Hirasawa). Upon confirming confluency of the cells, the supernatant was discarded, the plate was rinsed twice with PBS, and then PBS containing 0.1% glutaraldehyde (Kanto Kagaku) was added at 100 μl/well and the HUVECs were immobilized for 5 minutes. The supernatant was discarded and the plate was washed twice with PBS, and then PBS was added at 100 μl/well and the mixture was stored at 4° C. until use.
To 6.5 ml of RPMI-1640 medium (Sigma) containing 1 mg/ml of BSA were added 0.5 ml of a suspension of BCECF-AM labeled neutrophils at 5×10^7/ml stored in ice, which was mixed, and the mixture was added at 80 μl/well to a HUVEC immobilized plate. To this plate were immediately added 10 μl/well of a solution of the compound diluted at different concentrations with RPMI-1640 containing 1 mg/ml BSA, and 10 μl/well of 100 nM phorbol myristate acetate (hereinafter abbreviated as PMA; Sigma) in RPMI-1640 containing 1 mg/ml BSA, and the mixture was incubated in a CO2 incubator at 37° C. for 45 minutes. The supernatant was removed from the plate, which was then washed several times with RPMI-1640 at 100 μl/well, and then PBS containing 0.1% NP-40 (Calbiochem) was added thereto at 100 μl/well and the fluorescent intensity was measured with and ARVO™SX 1420 multi label counter (Wallac) to determine the number of adhered cells. […]

Assay [3] relates to Balb/c mice. The assay is described as follows: DSS-induced colitis model. The format is in vivo. The note with it: male Balb/c mice; 1-3% DSS for 5-7 days; 30 mg/kg orally once a day for 5-7 successive days. The text has this: Evaluation of Compounds in DSS-Induced Colitis Model
A 1-3% solution of dextran sulfate sodium (hereinafter abbreviated as DSS; ICN) in purified water (Otsuka Pharmaceutical) was fed freely to 6- to 7-week-old male Balb/c mice (Charles River Japan) for 5-7 days to induce colitis. Disease Activity Index (hereinafter abbreviated as DAI) scored based on fecal hardness, blood content in feces and body weight change, the number of neutrophils infiltrating the colon and the length of the colon were used as indexes to evaluate compounds. Each compound was suspended or dissolved in an aqueous solution containing 0.5% methyl cellulose (Wako), and orally administered at 30 mg/kg once a day, for 5-7 successive days.

In the case of `CCCCN1CCN(c2ccc(N3CCOCC3)cc2C2=CCC(C(C)(C)C)CC2)CC1.Cl` (racemic) [Example 18, 4-[3-(4-t-Butylcyclohex-1-enyl)-4-(4-butylpiperazin-1-yl)phenyl]morpholine hydrochloride], the IC50 in assay [1] amounted to 2.6 µM; in assay [2], 12.1 µM. In addition, the “improvement in comparison with the DSS control group (DAI, number of neutrophils infiltrating the colon, length of the colon)” value (from here on “improvement in comparison”) in assay [3] was “particularly good improvement”.
On the same counts, the results for `COC1CCN(c2ccc(N3CCN(CC4CC4)CC3)c(C3=CCC(C(C)(C)C)CC3)c2)CC1.Cl` (racemic) [Example 20, 1-[2-(4-t-Butylcyclohex-1-enyl)-4-(4-methoxypiperidin-1-yl)phenyl]-4-cyclopropylmethylpiperazine hydrochloride] are 7.7 µM, 6.1 µM and “particularly good improvement”.
The like results for `CCCCCN1CCN(c2cc(OC)ccc2C2CCC(C)(C)CC2)CC1.Cl` [Example 1, 1-[2-(4,4-Dimethylcyclohexyl)-5-methoxyphenyl]-4-pentylpiperazine hydrochloride] were, in that order, 4.5 µM, 9.1 µM and “particularly good improvement”.
For `CCC(=O)CN1CCN(c2ccccc2C2CCC(C)(C)CC2)CC1.Cl` [Example 17, 1-{4-[2-(4,4-Dimethylcyclohexyl)phenyl]piperazin-1-yl}butan-2-one hydrochloride], the IC50 in assay [1] worked out at 6.1 µM; in assay [2], 17.9 µM. Further, the “improvement in comparison” value in assay [3] is given as “particularly good improvement”.
For `CC1(C)C=C(c2ccccc2N2CCN(CC3CCOCC3)CC2)CC(C)(C)C1.Cl` [Example 22, 1-(Tetrahydropyran-4-ylmethyl)-4-[2-(3,3,5,5-tetramethylcyclohex-1-enyl)phenyl]piperazine hydrochloride], the IC50 in assay [1] was found to be 2.2 µM; in assay [2] it was 18.1 µM. For the same molecule, the “improvement in comparison” value in assay [3] is listed as “particularly good improvement”.
On the same counts, the results for `CCCN1CCN(c2ccc(N3CCOCC3)cc2C2=CC(C)(C)CC(C)(C)C2)CC1.Cl` [Example 28, 4-[4-(4-Propylpiperazin-1-yl)-3-(3,3,5,5-tetramethylcyclohex-1-enyl)phenyl]morpholine hydrochloride] are 3.1 µM, 8.5 µM and “particularly good improvement”.
With `CCC(=O)CN1CCN(c2ccc(N3CCOCC3)cc2C2=CCC(CC)(CC)CC2)CC1.Cl` [Example 30, 1-{4-[2-(4,4-Diethylcyclohex-1-enyl)-4-morpholin-4-ylphenyl]piperazin-1-yl}butan-2-one hydrochloride], the IC50 came to 5.5 µM in assay [1] and 16.9 µM in assay [2]. Besides, in assay [3], the “improvement in comparison” value was “particularly good improvement”.
Consider `CC(C)CN1CCN(c2ccccc2C2=CCC3(CC2)CC3)CC1.Cl` [Example 34, 1-Isobutyl-4-(2-spiro[2.5]oct-5-en-6-ylphenyl)piperazine hydrochloride], for which the “improvement in comparison” value in assay [3] is “particularly good improvement”.
Consider `CCCCN1CCN(c2ccccc2/C2=C/CCCCCC2)CC1` [Example 47, 1-Butyl-4-(2-cyclooct-1-enylphenyl)piperazine hydrochloride], for which the IC50 turned out to be 5 µM in assay [1] (Homo sapiens, Jurkat) and 11.8 µM in assay [2] (HUVEC).
As for `COCCN1CCN(c2ccc(N3CCC(OC)CC3)cc2C2=CCC3(CCCCC3)CC2)CC1` [Example 48, 1-(2-Methoxyethyl)-4-[4-(4-methoxypiperidin-1-yl)-2-spiro[5.5]undec-2-en-3-ylphenyl]piperazine hydrochloride], the IC50 in assay [1] came out at 7.9 µM; in assay [2] it was 4.9 µM.
Consider `CC1(C)CCC(c2ccccc2N2CCN(Cc3ccoc3)CC2)CC1` [Example 69, 1-[2-(4,4-Dimethylcyclohexyl)phenyl]-4-furan-3-ylmethylpiperazine hydrochloride], for which the IC50 in assay [1] was 3.6 µM; in assay [2], 9.4 µM.
Take `COc1ccc(N2CCN(CC3CCOCC3)CC2)c(C2CC(C)(C)CC(C)(C)C2)c1` [Example 85, 1-[4-Methoxy-2-(3,3,5,5-tetramethylcyclohexyl)phenyl]-4-(tetrahydropyran-4-ylmethyl)piperazine hydrochloride]: the IC50 in assay [1] was determined as 6.4 µM; in assay [2], 16.4 µM.
Take `CCCCN1CCC(c2ccccc2C2CC(C)(C)CC(C)(C)C2)CC1` [Example 103, 1-Butyl-4-[2-(3,3,5,5-tetramethylcyclohexyl)phenyl]piperidine hydrochloride]: the IC50 stood at 4.5 µM in assay [1] and 19.3 µM in assay [2].
As to `CC1(C)CC(c2ccccc2N2CCN(CC3CC3)CC2)CC(C)(C)C1` [Example 117, 1-Cyclopropylmethyl-4-[2-(3,3,5,5-tetramethylcyclohexyl)phenyl]piperazine methanesulfonate], the IC50 turned out to be 4.7 µM in assay [1] and 7.1 µM in assay [2].

One may read the IC50 as the point on the concentration scale where inhibition reaches its midpoint. Higher therefore signals a need for much substance.
